# Like-named read-outs stand apart in the source and are kept apart here.
# Experiments:
# TNFα = experiment: Cot Monocyte TNFα Cell Based Assay; conditions: Homo sapiens, Monocyte, read-out: EC50 TNF, LPS-stimulated human monocytes, TNFα
# Human Cot = Human Cot (Homo sapiens (Human), UniProt P41279); experiment: High Throughput Cot Biochemical Assay; conditions: Cot HTRF (TR-FRET) biochemical assay
# Human Cot, sequence (P41279 30-397): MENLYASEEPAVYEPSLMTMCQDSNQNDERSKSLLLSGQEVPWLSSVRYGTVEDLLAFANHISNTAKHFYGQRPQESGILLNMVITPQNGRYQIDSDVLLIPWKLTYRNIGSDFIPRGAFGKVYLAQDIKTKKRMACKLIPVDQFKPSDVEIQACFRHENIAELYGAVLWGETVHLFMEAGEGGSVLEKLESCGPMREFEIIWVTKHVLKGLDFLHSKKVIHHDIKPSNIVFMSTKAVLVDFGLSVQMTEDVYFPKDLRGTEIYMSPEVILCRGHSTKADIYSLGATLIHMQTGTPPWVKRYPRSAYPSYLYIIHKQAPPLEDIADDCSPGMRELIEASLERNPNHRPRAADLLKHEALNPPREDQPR
Structure (SMILES),EC50 (TNFα) [nM],IC50 (Human Cot; IC50 HTRF) [nM],IC50 (Human Cot; read-out: IC50 HTRF) [nM]
"CCN1CCC(n2cc([C@@H](Nc3cc(Cl)c4ncc(C#N)c(Nc5ccc(F)c(Cl)c5)c4c3)c3ccc(Cl)nc3)nn2)CC1 [Example 379, (S)-8-chloro-4-((3-chloro-4-fluoro-phenyl)amino)-6-(((6-chloropyridin-3-yl)(1-(1-ethylpiperidin-4-yl)-1H-1,2,3-triazol-4-yl)methyl)amino)quinoline-3-carbonitrile]",179,6,
"CCN1CCC(n2cc([C@@H](Nc3cc(Cl)c4ncc(C#N)c(Nc5ccc(F)c(Cl)c5)c4c3)c3cc(Cl)cs3)nn2)CC1 [Example 381, (R)-8-chloro-4-((3-chloro-4-fluoro-phenyl)amino)-6-(((4-chlorothiophen-2-yl)(1-(1-ethylpiperidin-4-yl)-1H-1,2,3-triazol-4-yl)methyl)amino)-quinoline-3-carbonitrile]",303,7,
"CCN1CCC(n2cc([C@@H](Nc3cc(Cl)c4ncc(C#N)c(Nc5ccc(F)c(Cl)c5)c4c3)c3sccc3Cl)nn2)CC1 [Example 389, (R)-8-chloro-4-((3-chloro-4-fluoro-phenyl)amino)-6-(((3-chlorothiophen-2-yl)(1-(1-ethylpiperidin-4-yl)-1H-1,2,3-triazol-4-yl)methyl)amino)-quinoline-3-carbonitrile]",328,11,
"Cn1cnc(C(Nc2cc(Cl)c3ncc(C#N)c(Nc4ccc(F)c(Cl)c4)c3c2)c2cccnc2)c1 (stereo not shown) [Example 403, 8-chloro-4-((3-chloro-4-fluoro-phenyl)amino)-6-(((1-methyl-1H-imidazol-4-yl)(pyridin-3-yl)methyl)-amino)quinoline-3-carbonitrile]",290,,9
"N#Cc1cnc2c(Cl)cc(NC(c3cccnc3)c3cn(C4CCNCC4)nn3)cc2c1Nc1ccc(F)c(Cl)c1 (stereo not shown) [Example 405, 8-chloro-4-((3-chloro-4-fluoro-phenyl)amino)-6-(((1-(piperidin-4-yl)-1H-1,2,3-triazol-4-yl)(pyridin-3-yl)methyl)amino)quinoline-3-carbonitrile]",1040,2,
"CC(C)(C)CNc1c(C#N)cnc2c(C#N)cc(N[C@H](c3cn(C4(C(N)=O)CC4)nn3)c3cccc4ncsc34)cc12 [Example 409, (S)-1-(4-(benzo[d]thiazol-7-yl((3,8-dicyano-4-(neopentylamino)quinolin-6-yl)amino)methyl)-1H-1,2,3-triazol-1-yl)cyclopropane-1-carboxamide]",559,1,
"CC(C)(C)CNc1c(C#N)cnc2c(C#N)cc(N[C@@H](c3cn(C4CC4)nn3)c3cccc4ncsc34)cc12 [Example 410, (R)-6-((benzo[d]thiazol-7-yl(1-cyclopropyl-1H-1,2,3-triazol-4-yl)methyl)amino)-4-(neopentyl-amino)quinoline-3,8-dicarbonitrile]",1000,113,
"CC(C)(C)CNc1c(C#N)cnc2c(Cl)cc(N[C@H](c3cn(C4(C(F)(F)F)CC4)nn3)c3cccc4ncsc34)cc12 [Example 417, (S)-6-((benzo[d]thiazol-7-yl(1-(1-(trifluoromethyl)cyclopropyl)-1H-1,2,3-triazol-4-yl)methyl)amino)-8-chloro-4-(neopentylamino)quinoline-3-carbonitrile]",218,9,

# These reach a lower EC50 (TNFα). Values come first.
EC50 (TNFα) [nM],IC50 (Human Cot; IC50 HTRF) [nM],IC50 (Human Cot; read-out: IC50 HTRF) [nM],Structure (SMILES)
157,7,,"CC[C@@H](Nc1c(C#N)cnc2c(C#N)cc(N[C@H](c3cn(C4(C(F)(F)F)CC4)nn3)c3cccc4ncsc34)cc12)c1ccccc1 [Example 412, 6-(((S)-benzo[d]thiazol-7-yl(1-(1-(trifluoromethyl)-cyclopropyl)-1H-1,2,3-triazol-4-yl)methyl)amino)-4-(((R)-1-phenylpropyl)amino)quinoline-3,8-dicarbonitrile]"
124,2,,"CC(C)(C)CNc1c(C#N)cnc2c(Cl)cc(N[C@H](c3cn(C4(C(N)=O)CC4)nn3)c3cccc4ncsc34)cc12 [Example 416, (S)-1-(4-(benzo[d]thiazol-7-yl((8-chloro-3-cyano-4-(neopentylamino)quinolin-6-yl)amino)methyl)-1H-1,2,3-triazol-1-yl)cyclopropane-1-carboxamide]"
88,1,,"CC(C)(C)CNc1c(C#N)cnc2c(Br)cc(N[C@H](c3cn(C4(C(N)=O)CC4)nn3)c3cccc4ncsc34)cc12 [Example 408, (S)-1-(4-(benzo[d]thiazol-7-yl((8-bromo-3-cyano-4-(neopentylamino)-quinolin-6-yl)amino)methyl)-1H-1,2,3-triazol-1-yl)cyclopropane-1-carboxamide]"
76,5,,"CC[C@@H](Nc1c(C#N)cnc2c(C#N)cc(N[C@H](c3cn(C4CC4)nn3)c3cccc4ncsc34)cc12)c1ccccc1 [Example 411, 6-(((S)-benzo[d]thiazol-7-yl(1-cyclopropyl-1H-1,2,3-triazol-4-yl)methyl)amino)-4-(((R)-1-phenylpropyl)amino)quinoline-3,8-dicarbonitrile]"
67,3,,"CC(C)(C)CNc1c(C#N)cnc2c(Cl)cc(N[C@H](c3cn(C4(C#N)CC4)nn3)c3cccc4ncsc34)cc12 [Example 415, (S)-6-((benzo[d]thiazol-7-yl(1-(1-cyanocyclopropyl)-1H-1,2,3-triazol-4-yl)methyl)amino)-8-chloro-4-(neopentylamino)quinoline-3-carbonitrile]"
49,3,,"CC(C)(C)CNc1c(C#N)cnc2c(Cl)cc(N[C@H](c3cn(C4CCN(C(C)(C)C)CC4)nn3)c3cccc4ncsc34)cc12 [Example 419, (S)-6-((benzo[d]thiazol-7-yl(1-(1-(tert-butyl)piperidin-4-yl)-1H-1,2,3-triazol-4-yl)methyl)amino)-8-chloro-4-(neopentylamino)quinoline-3-carbonitrile]"
45,2,,"CC(C)(C)CNc1c(C#N)cnc2c(Cl)cc(N[C@H](c3cn(C4CC4)nn3)c3cccc4ncsc34)cc12 [Example 418, (S)-6-((benzo[d]thiazol-7-yl(1-cyclopropyl-1H-1,2,3-triazol-4-yl)methyl)amino)-8-chloro-4-(neopentylamino)quinoline-3-carbonitrile]"
44,4,,"[2H]C(Nc1cc(Cl)c2ncc(C#N)c(N[C@H](CCC#N)c3ccccc3)c2c1)(c1cn(C2(C(F)(F)F)CC2)nn1)c1ccc(F)nc1C (stereo partly drawn) [Example 413, 8-chloro-4-(((R)-3-cyano-1-phenyl-propyl)amino)-6-(((6-fluoro-2-methyl-pyridin-3-yl)(1-(1-(trifluoromethyl)-cyclopropyl)-1H-1,2,3-triazol-4-yl)methyl-d)amino)quinoline-3-carbonitrile]"
35,1,,"N#CCC[C@@H](Nc1c(C#N)cnc2c(C#N)cc(N[C@H](c3cn(C4CC4)nn3)c3csc4c3CCN(C3COC3)C4)cc12)c1ccccc1 [Example 414, 4-(((R)-3-cyano-1-phenylpropyl)amino)-6-(((S)-(1-cyclopropyl-1H-1,2,3-triazol-4-yl)(6-(oxetan-3-yl)-4,5,6,7-tetrahydro-thieno[2,3-c]pyridin-3-yl)methyl)amino)-quinoline-3,8-dicarbonitrile]"
